Reference: patent US20230085307A1, “PYRIDAZINONE COMPOUND AND HERBICIDE” (NISSAN CHEMICAL CORPORATION, priority 2019, published 2023)

Columns and labels:
wild oat [1] = assay: Test Example 5: herbicidal effect by foliage application, plastic box (Table 20, symbol I); format: in vivo, wild oat (Avena fatua); conditions: foliage application, 320 g/ha, three weeks after application
How it was run: (§1)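 Plants sown in sterilized diluvial soil and grown 14 days in a greenhouse at 25° C to 30° C, then sprayed on the foliage with the compound's emulsion diluted in water to a predetermined herbicide amount. Injury to weeds and crops scored three weeks after application on a visual rating scale.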

lambsquarters [2] = assay: Test Example 5: herbicidal effect by foliage application, plastic box (Table 20, symbol O); format: in vivo, lambsquarters (Chenopodium album); conditions: foliage application, 320 g/ha, three weeks after application
How it was run: as §1

barnyard grass [3] = assay: Test Example 4: herbicidal effect by soil treatment (Table 19, symbol H); format: in vivo, barnyard grass (Echinochloa crus-galli); conditions: amount of applied herbicide 320 g/ha
How it was run: (§2)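 Three weeks of greenhouse growth at 25° C. to 30° C. followed a uniform surface spray of water-diluted emulsion at a predetermined herbicide amount. Seeds had been sown beforehand under about 1.5 cm of sterilized diluvial soil. Grading followed criteria set out in an earlier test.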

persian speedwell [4] = assay: Test Example 4: herbicidal effect by soil treatment (Table 19, symbol R); format: in vivo, Persian speedwell (Veronica persica); conditions: amount of applied herbicide 320 g/ha
How it was run: as §2

false cleavers [5] = assay: Test Example 4: herbicidal effect by soil treatment (Table 19, symbol Q); format: in vivo, false cleavers (Galium spurium); conditions: amount of applied herbicide 320 g/ha
How it was run: as §2

windgrass [6] = assay: Test Example 5: herbicidal effect by foliage application, plastic box (Table 20, symbol L); format: in vivo, windgrass (Apera spica-venti); conditions: foliage application, 320 g/ha, three weeks after application
How it was run: as §1

southern crabgrass [7] = assay: Test Example 5: herbicidal effect by foliage application, plastic box (Table 20, symbol F); format: in vivo, southern crabgrass (Digitaria ciliaris); conditions: foliage application, 320 g/ha, three weeks after application
How it was run: as §1

windgrass [8] = assay: Test Example 4: herbicidal effect by soil treatment (Table 19, symbol L); format: in vivo, windgrass (Apera spica-venti); conditions: amount of applied herbicide 320 g/ha
How it was run: as §2

redroot pigweed [9] = assay: Test Example 4: herbicidal effect by soil treatment (Table 19, symbol N); format: in vivo, redroot pigweed (Amaranthus retroflexus); conditions: amount of applied herbicide 320 g/ha
How it was run: as §2

southern crabgrass [10] = assay: Test Example 4: herbicidal effect by soil treatment (Table 19, symbol F); format: in vivo, southern crabgrass (Digitaria ciliaris); conditions: amount of applied herbicide 320 g/ha
How it was run: as §2

chickweed [11] = assay: Test Example 5: herbicidal effect by foliage application, plastic box (Table 20, symbol P); format: in vivo, common chickweed (Stellaria media); conditions: foliage application, 320 g/ha, three weeks after application
How it was run: as §1

false cleavers [12] = assay: Test Example 5: herbicidal effect by foliage application, plastic box (Table 20, symbol Q); format: in vivo, false cleavers (Galium spurium); conditions: foliage application, 320 g/ha, three weeks after application
How it was run: as §1

redroot pigweed [13] = assay: Test Example 5: herbicidal effect by foliage application, plastic box (Table 20, symbol N); format: in vivo, redroot pigweed (Amaranthus retroflexus); conditions: foliage application, 320 g/ha, three weeks after application
How it was run: as §1

chickweed [14] = assay: Test Example 4: herbicidal effect by soil treatment (Table 19, symbol P); format: in vivo, common chickweed (Stellaria media); conditions: amount of applied herbicide 320 g/ha
How it was run: as §2

persian speedwell [15] = assay: Test Example 5: herbicidal effect by foliage application, plastic box (Table 20, symbol R); format: in vivo, Persian speedwell (Veronica persica); conditions: foliage application, 320 g/ha, three weeks after application
How it was run: as §1

velvetleaf [16] = assay: Test Example 5: herbicidal effect by foliage application, plastic box (Table 20, symbol M); format: in vivo, velvetleaf (Abutilon theophrasti); conditions: foliage application, 320 g/ha, three weeks after application
How it was run: as §1

green foxtail [17] = assay: Test Example 4: herbicidal effect by soil treatment (Table 19, symbol G); format: in vivo, green foxtail (Setaria viridis); conditions: amount of applied herbicide 320 g/ha
How it was run: as §2

blackgrass [18] = assay: Test Example 4: herbicidal effect by soil treatment (Table 19, symbol J); format: in vivo, blackgrass (Alopecurus myosuroides); conditions: amount of applied herbicide 320 g/ha
How it was run: as §2

Italian ryegrass [19] = assay: Test Example 5: herbicidal effect by foliage application, plastic box (Table 20, symbol K); format: in vivo, Italian ryegrass (Lolium multiflorum); conditions: foliage application, 320 g/ha, three weeks after application
How it was run: as §1

barnyard grass [20] = assay: Test Example 5: herbicidal effect by foliage application, plastic box (Table 20, symbol H); format: in vivo, barnyard grass (Echinochloa crus-galli); conditions: foliage application, 320 g/ha, three weeks after application
How it was run: as §1

blackgrass [21] = assay: Test Example 5: herbicidal effect by foliage application, plastic box (Table 20, symbol J); format: in vivo, blackgrass (Alopecurus myosuroides); conditions: foliage application, 320 g/ha, three weeks after application
How it was run: as §1

green foxtail [22] = assay: Test Example 5: herbicidal effect by foliage application, plastic box (Table 20, symbol G); format: in vivo, green foxtail (Setaria viridis); conditions: foliage application, 320 g/ha, three weeks after application
How it was run: as §1

velvetleaf [23] = assay: Test Example 4: herbicidal effect by soil treatment (Table 19, symbol M); format: in vivo, velvetleaf (Abutilon theophrasti); conditions: amount of applied herbicide 320 g/ha
How it was run: as §2

Italian ryegrass [24] = assay: Test Example 4: herbicidal effect by soil treatment (Table 19, symbol K); format: in vivo, Italian ryegrass (Lolium multiflorum); conditions: amount of applied herbicide 320 g/ha
How it was run: as §2

wild oat [25] = assay: Test Example 4: herbicidal effect by soil treatment (Table 19, symbol I); format: in vivo, wild oat (Avena fatua); conditions: amount of applied herbicide 320 g/ha
How it was run: as §2

lambsquarters [26] = assay: Test Example 4: herbicidal effect by soil treatment (Table 19, symbol O); format: in vivo, lambsquarters (Chenopodium album); conditions: amount of applied herbicide 320 g/ha
How it was run: as §2

rice flat sedge = assay: Test Example 3: herbicidal effect by foliage application, Wagner pot (Table 18, symbol E); format: in vivo, rice flat sedge (Cyperus iria); conditions: 320 g/ha
How it was run: (§3)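 Plants were sown in alluvial soil held under 0.1–0.5 cm standing water and grown 14 days in a greenhouse at 25–30 °C. An emulsifiable formulation, water-diluted to the set dose, was then sprayed onto the foliage, and effects were scored three weeks later using previously defined criteria.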

barnyard grass [27] = assay: Test Example 3: herbicidal effect by foliage application, Wagner pot (Table 18, symbol H); format: in vivo, barnyard grass (Echinochloa crus-galli); conditions: 320 g/ha
How it was run: as §3

Chinese sprangletop = assay: Test Example 3: herbicidal effect by foliage application, Wagner pot (Table 18, symbol D); format: in vivo, chinese sprangletop (Leptochloa chinensis); conditions: 320 g/ha
How it was run: as §3

In the case of CCCC(=O)Oc1c(C)nn(C)c(=O)c1-c1c(-c2ccsc2)sc2ccccc12 [1-084], the “herbicidal effect grade, I: wild oat” value (wild oat [1]) was 0 (Herbicidal rate of 5% or less (almost no effect)), the “herbicidal effect grade, O: lambsquarters” value (lambsquarters [2]) was 0 (Herbicidal rate of 5% or less (almost no effect)) and the “herbicidal effect rating, H: barnyard grass” value (barnyard grass [3]) was 1 (Herbicidal rate of 5% or more and less than 20%). The “herbicidal effect rating, R: persian speedwell” value (persian speedwell [4]) was 0 (Herbicidal rate of 5% or less (almost no effect)), the “herbicidal effect rating, Q: false cleavers” value (false cleavers [5]) was 0 (Herbicidal rate of 5% or less (almost no effect)) and the “herbicidal effect grade, L: windgrass” value (windgrass [6]) was 0 (Herbicidal rate of 5% or less (almost no effect)). The “herbicidal effect grade, F: southern crabgrass” value (southern crabgrass [7]) was 0 (Herbicidal rate of 5% or less (almost no effect)), the “herbicidal effect rating, L: windgrass” value (windgrass [8]) was 0 (Herbicidal rate of 5% or less (almost no effect)) and the “herbicidal effect rating, N: redroot pigweed” value (redroot pigweed [9]) was 0 (Herbicidal rate of 5% or less (almost no effect)). For the same compound, the “herbicidal effect rating, F: southern crabgrass” value (southern crabgrass [10]) was 1 (Herbicidal rate of 5% or more and less than 20%), the “herbicidal effect grade, P: chickweed” value (chickweed [11]) was 5 (Herbicidal rate of 90% or more (almost completely withered)) and the “herbicidal effect grade, Q: false cleavers” value (false cleavers [12]) was 0 (Herbicidal rate of 5% or less (almost no effect)). For the same compound, the “herbicidal effect grade, N: redroot pigweed” value (redroot pigweed [13]) was 0 (Herbicidal rate of 5% or less (almost no effect)), the “herbicidal effect rating, P: chickweed” value (chickweed [14]) was 1 (Herbicidal rate of 5% or more and less than 20%) and the “herbicidal effect grade, R: persian speedwell” value (persian speedwell [15]) was 0 (Herbicidal rate of 5% or less (almost no effect)). The “herbicidal effect grade, M: velvetleaf” value (velvetleaf [16]) was 0 (Herbicidal rate of 5% or less (almost no effect)), the “herbicidal effect rating, G: green foxtail” value (green foxtail [17]) was 2 (Herbicidal rate of 20% or more and less than 40%) and the “herbicidal effect rating, J: blackgrass” value (blackgrass [18]) was 0 (Herbicidal rate of 5% or less (almost no effect)). The “herbicidal effect grade, K: Italian ryegrass” value (Italian ryegrass [19]) was 1 (Herbicidal rate of 5% or more and less than 20%), the “herbicidal effect grade, H: barnyard grass” value (barnyard grass [20]) was 0 (Herbicidal rate of 5% or less (almost no effect)) and the “herbicidal effect grade, J: blackgrass” value (blackgrass [21]) was 0 (Herbicidal rate of 5% or less (almost no effect)). For the same compound, the “herbicidal effect grade, G: green foxtail” value (green foxtail [22]) was 0 (Herbicidal rate of 5% or less (almost no effect)), the “herbicidal effect rating, M: velvetleaf” value (velvetleaf [23]) was 0 (Herbicidal rate of 5% or less (almost no effect)) and the “herbicidal effect rating, K: Italian ryegrass” value (Italian ryegrass [24]) was 0 (Herbicidal rate of 5% or less (almost no effect)). For the same compound, the “herbicidal effect rating, I: wild oat” value (wild oat [25]) was 0 (Herbicidal rate of 5% or less (almost no effect)) and the “herbicidal effect rating, O: lambsquarters” value (lambsquarters [26]) was 0 (Herbicidal rate of 5% or less (almost no effect)).

CCCC(=O)Oc1c(C)nn(C)c(=O)c1-c1c(-c2ccc3c(c2)OCCO3)sc2cc(Cl)ccc12 [3-048] was tested, and the “I: wild oat, herbicidal effect grade” value (wild oat [1]) was 0 (Herbicidal rate of 5% or less (almost no effect)), the “O: lambsquarters, herbicidal effect grade” value (lambsquarters [2]) was 3 (Herbicidal rate of 40% or more and less than 70%) and the “H: barnyard grass, herbicidal effect grade” value (barnyard grass [3]) was 0 (Herbicidal rate of 5% or less (almost no effect)). For the same compound, the “R: persian speedwell, herbicidal effect grade” value (persian speedwell [4]) was 0 (Herbicidal rate of 5% or less (almost no effect)), the “Q: false cleavers, herbicidal effect grade” value (false cleavers [5]) was 4 (Herbicidal rate of 70% or more and less than 90%) and the “L: windgrass, herbicidal effect grade” value (windgrass [6]) was 0 (Herbicidal rate of 5% or less (almost no effect)). For the same compound, the “F: southern crabgrass, herbicidal effect grade” value (southern crabgrass [7]) was 0 (Herbicidal rate of 5% or less (almost no effect)), the “L: windgrass, herbicidal effect grade” value (windgrass [8]) was 0 (Herbicidal rate of 5% or less (almost no effect)) and the “N: redroot pigweed, herbicidal effect grade” value (redroot pigweed [9]) was 0 (Herbicidal rate of 5% or less (almost no effect)). The “F: southern crabgrass, herbicidal effect grade” value (southern crabgrass [10]) was 0 (Herbicidal rate of 5% or less (almost no effect)), the “P: chickweed, herbicidal effect grade” value (chickweed [11]) was 5 (Herbicidal rate of 90% or more (almost completely withered)) and the “Q: false cleavers, herbicidal effect grade” value (false cleavers [12]) was 4 (Herbicidal rate of 70% or more and less than 90%). For the same compound, the “N: redroot pigweed, herbicidal effect grade” value (redroot pigweed [13]) was 3 (Herbicidal rate of 40% or more and less than 70%), the “P: chickweed, herbicidal effect grade” value (chickweed [14]) was 1 (Herbicidal rate of 5% or more and less than 20%) and the “M: velvetleaf, herbicidal effect grade” value (velvetleaf [16]) was 1 (Herbicidal rate of 5% or more and less than 20%). The “G: green foxtail, herbicidal effect grade” value (green foxtail [17]) was 0 (Herbicidal rate of 5% or less (almost no effect)), the “herbicidal effect on rice flat sedge (E)” value (rice flat sedge) was 2 (Herbicidal rate of 20% or more and less than 40%) and the “J: blackgrass, herbicidal effect grade” value (blackgrass [18]) was 0 (Herbicidal rate of 5% or less (almost no effect)). For the same compound, the “K: Italian ryegrass, herbicidal effect grade” value (Italian ryegrass [19]) was 0 (Herbicidal rate of 5% or less (almost no effect)), the “H: barnyard grass, herbicidal effect grade” value (barnyard grass [20]) was 0 (Herbicidal rate of 5% or less (almost no effect)) and the “J: blackgrass, herbicidal effect grade” value (blackgrass [21]) was 0 (Herbicidal rate of 5% or less (almost no effect)). The “G: green foxtail, herbicidal effect grade” value (green foxtail [22]) was 0 (Herbicidal rate of 5% or less (almost no effect)), the “M: velvetleaf, herbicidal effect grade” value (velvetleaf [23]) was 0 (Herbicidal rate of 5% or less (almost no effect)) and the “herbicidal effect on barnyard grass (H)” value (barnyard grass [27]) was 4 (Herbicidal rate of 70% or more and less than 90%). The “K: Italian ryegrass, herbicidal effect grade” value (Italian ryegrass [24]) was 0 (Herbicidal rate of 5% or less (almost no effect)), the “I: wild oat, herbicidal effect grade” value (wild oat [25]) was 0 (Herbicidal rate of 5% or less (almost no effect)) and the “herbicidal effect on Chinese sprangletop (D)” value (Chinese sprangletop) was 0 (Herbicidal rate of 5% or less (almost no effect)). The “O: lambsquarters, herbicidal effect grade” value (lambsquarters [26]) was 0 (Herbicidal rate of 5% or less (almost no effect)).
